According to US9096560B2, “5-heterocyclylalkyl-3-hydroxy-2-phenylcyclopent-2-enones as herbicides” (Syngenta Limited, priority 2008, dated 2015):

Tests used:
Assay type in all cases: in vivo
[1] = system: Echinochloa crus-galli (ECHCG); assay: Example B post-emergence herbicidal test, ECHCG; details: Echinochloa crus-galli, 312 h, rate 250 g/ha, evaluated after 13 days, scale 0-100, read-out: Post-emergence activity ECHCG (100=total damage to plant; 0=no damage to plant)
Method in brief: (§1)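 Damage was rated visually 13 days after treatment, where 100 meant total plant damage and 0 none. Treatment was a spray of aqueous solution (acetone/water 50:50, 0.5% Tween 20) applied to plants cultivated 8 days from seed under controlled glasshouse conditions.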

Lolium perenne (LOLPE) [2] = assay: Example B pre-emergence herbicidal test, LOLPE; details: Lolium perenne, 312 h, rate 250 g/ha, evaluated after 13 days, 100=total damage to plant, 0=no damage to plant
Method in brief: (§2)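 After sowing in standard soil, pots spent a day in the glasshouse (24/16° C, 14 h photoperiod, 65% humidity) before spraying with compound in acetone/water 50:50 with 0.5% Tween 20. Watering followed twice a day, and plants were evaluated 13 days on, with 100 meaning complete damage.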

Avena fatua (AVEFA) [3] = assay: Example B pre-emergence herbicidal test, AVEFA; details: Avena fatua, 312 h, rate 250 g/ha, evaluated after 13 days, 100=total damage to plant, 0=no damage to plant
Method in brief: as §2

Avena fatua (AVEFA) [4] = assay: Example B post-emergence herbicidal test, AVEFA; details: Avena fatua, 312 h, rate 250 g/ha, evaluated after 13 days, scale 0-100, read-out: Post-emergence activity AVEFA (100=total damage to plant; 0=no damage to plant)
Method in brief: as §1

Lolium perenne (LOLPE) [5] = assay: Example B post-emergence herbicidal test, LOLPE; details: Lolium perenne, 312 h, rate 250 g/ha, evaluated after 13 days, scale 0-100, read-out: Post-emergence activity LOLPE (100=total damage to plant; 0=no damage to plant)
Method in brief: as §1

[6] = system: Alopecurus myosuroides (ALOMY); assay: Example B post-emergence herbicidal test, ALOMY; details: Alopecurus myosuroides, 312 h, rate 250 g/ha, evaluated after 13 days, scale 0-100, read-out: Post-emergence activity ALOMY (100=total damage to plant; 0=no damage to plant)
Method in brief: as §1

[7] = system: Alopecurus myosuroides (ALOMY); assay: Example B pre-emergence herbicidal test, ALOMY; details: Alopecurus myosuroides, 312 h, rate 250 g/ha, evaluated after 13 days, 100=total damage to plant, 0=no damage to plant
Method in brief: as §2

[8] = system: Echinochloa crus-galli (ECHCG); assay: Example B pre-emergence herbicidal test, ECHCG; details: Echinochloa crus-galli, 312 h, rate 250 g/ha, evaluated after 13 days, 100=total damage to plant, 0=no damage to plant
Method in brief: as §2

Row | SMILES | pest or weed control at 250 g/ha [1] [%] | pest or weed control at 250 g/ha (Lolium perenne (LOLPE) [2]) [%] | pest or weed control at 250 g/ha (Avena fatua (AVEFA) [3]) [%] | pest or weed control at 250 g/ha (Avena fatua (AVEFA) [4]) [%] | pest or weed control at 250 g/ha (Lolium perenne (LOLPE) [5]) [%] | pest or weed control at 250 g/ha [6] [%] | pest or weed control at 250 g/ha [7] [%] | pest or weed control at 250 g/ha [8] [%]
1 | Cc1cc(C)c(C2=C(OC(=O)C(C)(C)C)CC(CC3CCN(C(=O)C(C)(C)C)C3)C2=O)c(C)c1 (stereo not drawn) [Compound P59] | 70 | 80 | 30 | 80 | 80 | 90 | 50 | 70
2 | CCc1cc(C)cc(C)c1C1C(=O)CC(CCC2CCOCC2)C1=O (stereo not drawn) [Compound T58] | 100 | 100 | 90 | 90 | 90 | 100 | 90 | 100
3 | Cc1cc(-c2ccc(Cl)cc2F)cc(C)c1C1C(=O)C/C(=C\C2CCOCC2)C1=O (stereo not drawn) [Compound T132] | 100 | 70 | 70 | 80 | 70 | 70 | 20 | 90
4 | COC(=O)OC1=C(c2c(C)cc(C)cc2C)C(=O)C(CC2CCOCC2)C1 (stereo not drawn) [Compound P45] | 90 | 100 | 100 | 100 | 100 | 100 | 100 | 100
5 | Cc1cc(C)c(C2C(=O)CC(C)(C(O)C3CCOCC3)C2=O)c(C)c1 (stereo not drawn) [Compound T27] | 80 | 100 | 60 | 70 | 80 | 70 | 90 | 80
6 | CCC1CCC(CC2CC(=O)C(c3c(C)cc(C)cc3C)C2=O)O1 (stereo not drawn) [Compound T44] | 80 | 100 | 20 | 40 | 70 | 60 | 90 | 60
7 | Cc1ccc(C(=O)N2CCC(CC3CC(=O)C(c4c(C)cc(C)cc4C)C3=O)CC2)cc1 (stereo not drawn) [Compound T78] | 70 | 30 | 0 | 40 | 50 | 40 | 20 | 30
8 | Cc1cc(C)c(C2=C(OC(=O)C(C)(C)C)CC(CC3COCCO3)C2=O)c(C)c1 (stereo not drawn) [Compound P49] | 100 | 100 | 60 | 90 | 100 | 80 | 80 | 100
9 | Cc1cc(C)c(C2C(=O)C/C(=C\C3CC[S+]([O-])CC3)C2=O)c(C)c1 (stereo not drawn) [Compound T11] | 70 | 70 | 0 | 30 | 50 | 60 | 30 | 20
10 | Cc1cc(C)c(C2=C(OC(=O)c3c(C)noc3C)CC(CC3CCN(C(=O)c4c(C)noc4C)C3)C2=O)c(C)c1 (stereo not drawn) [Compound P63] | 70 | 70 | 40 | 90 | 80 | 90 | 50 | 70
11 | Cc1cc(C)c(C2C(=O)CC(CC3CCN(C(=O)c4ccc(Cl)cc4)CC3)C2=O)c(C)c1 (stereo not drawn) [Compound T76] | 90 | 60 | 20 | 100 | 40 | 90 | 30 | 60
12 | Cc1cc(C)c(C2C(=O)CC(CC3CCN(C(=O)c4ccc(Cl)c(Cl)c4)CC3)C2=O)c(C)c1 (stereo not drawn) [Compound T74] | 100 | 30 | 20 | 90 | 40 | 70 | 30 | 50
13 | Cc1cc(-c2ccc(F)cc2)cc(C)c1C1C(=O)CC(CC2CCOC2)C1=O (stereo not drawn) [Compound T158] | 100 | 90 | 70 | 100 | 100 | 100 | 80 | 100
14 | Cc1cc(C)c(C2C(=O)CC(CC3CCCCN3S(C)(=O)=O)C2=O)c(C)c1 (stereo not drawn) [Compound T51] | 70 | 100 | 90 | 80 | 60 | 70 | 80 | 80
15 | Cc1cc(-c2ccc(C(F)(F)F)cc2)cc(C)c1C1C(=O)CC(CC2CCOC2)C1=O (stereo not drawn) [Compound T157] | 60 | 10 | 0 | 50 | 30 | 30 | 10 | 40
16 | Cc1cc(Br)cc(C)c1C1C(=O)CC(CC2CCOCC2)C1=O (stereo not drawn) [Compound T138] | 70 | 90 | 70 | 90 | 90 | 90 | 80 | 90
17 | Cc1cc(C)c(C2C(=O)C/C(=C\C3CCCCN3S(C)(=O)=O)C2=O)c(C)c1 (stereo not drawn) [Compound T47] | 60 | 60 | 50 | 50 | 30 | 30 | 20 | 40
18 | Cc1cc(C)c(C2=C(OC(=O)C(C)(C)CCl)CC(CC3CCN(C(=O)C(C)(C)CCl)C3)C2=O)c(C)c1 (stereo not drawn) [Compound P60] | 40 | 80 | 0 | 80 | 70 | 80 | 30 | 50
19 | CCCCOC(=O)N1CCC(CC2CC(=O)C(c3c(C)cc(C)cc3C)C2=O)CC1 (stereo not drawn) [Compound T69] | 20 | 10 | 10 | 30 | 30 | 30 | 0 | 20
20 | Cc1cc(C)c(C2C(=O)CC(C(O)C3CCOC(C)(C)C3)C2=O)c(C)c1 (stereo not drawn) [Compound T38] | 100 | 70 | 40 | 100 | 100 | 100 | 90 | 100
21 | Cc1cc(C)c(C2C(=O)CC(CC3C[C@@H]4O[C@H]3[C@@H]3C(=O)N(C)C(=O)[C@@H]34)C2=O)c(C)c1 (stereo partly drawn) [Compound T128] | 50 | 50 | 40 | 90 | 50 | 40 | 70 | 60
